Measurements as given in patent US20200270225A1, “Chiral Diacylhydrazine Ligands for Modulating the Expression of Exogenous Genes via an Ecdysone Receptor Complex” (Intrexon Corporation, priority 2007, published 2020).
Where two headings read alike, the source gives them in different places.

Experiments:
[1] = tested on: RheoSwitch® Therapeutic System (RTS) gene expression; experiment: In vivo induction of RTS SEAP reporter in electroporated mice; parameters: species or system C57BL6 mice; conditions: intraperitoneal injection 26 nmol/mouse; monitored seventeen days
From the text: The wild-type D, E, and F domains from spruce budworm Choristoneura fumiferana EcR (“CfEcR-DEF”; SEQ ID NO: 1) were mutated [V107 (gtt)→1107 (att) and Y127 (tac)→E127 (gag)] and fused to a GAL4 DNA binding domain (“Gal4DBD1-147”; SEQ ID NO: 2). Helices 1 through 8 of the EF domains from Homo sapiens RXRPβ (“HsRXRβ-EF”; nucleotides 1-465 of SEQ ID NO: 4) and helices 9 through 12 of the EF domains of Locusta migratoria Ultraspiracle Protein (“LmUSP-EF”; nucleotides 403-630 of SEQ ID NO: 5) were fused to the transactivation domain from VP16 (“VP16AD”; SEQ ID NO: 6), which regulates a reporter gene human secreted alkaline phosphatase (“SEAP”, SEQ ID NO: 12) that was placed under the control of a 6xGAL4 response element (SEQ ID NO: 13) and a transthyretin promoter (SEQ ID NO: 14). Each element of the gene switch was on a separate plasmid. Receptor expression was under the control of a CMV promoter (SEQ ID NO: 15). Induction was evaluated by the amount of reporter protein expressed in the presence of ligand.
SEAP expression in serum of mice was evaluated after electroporation of the gene switch into mouse quadriceps. Mice were anesthetized with 2 μL/g of a mixture of ketamine (100 mg/mL) and xylazine (20 mg/mL). Animals were then shaved, DNA vectors injected into the muscle in a volume of 2×50 μL polyglutamic acid (12 mg/mL water), electrode conductivity gel applied, and an electrode caliber (1 cm×1 cm; model 384) was placed on hind leg. The muscle was electroporated with 200 V/cm, 8 times, for 20 msec/pulse, at 1 sec time intervals. The transverse electrical field direction was reversed after the animals received half of the pulses. Electroporation was performed with an ECM 830 electroporator from BTX Molecular Delivery Systems.
[…] In other experiments the concentration of ligand was decreased to 26 nmol/50 μL of DMSO/mouse. […]
Mouse serum was obtained by centrifugation of blood acquired by retroorbital bleeding with a small glass capillary tube. SEAP quantification was determined using a Clontech Great Escape chemiluminescence kit and by comparison with the Clontech SEAP standard. […]

[2] = molecular target: T1, [V390I/Y410E/E274V]-CfEcR (Choristoneura fumiferana, UniProt O77240); type: cell-based; conditions: 3T3 Cells; for RMFI (relative maximum fold induction): relative to GS-E ligand
T1 construct: assay construct b835
How it was run: (§1)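 NIH3T3 cells were transiently co-transfected with GAL4-DBD fused to CfEcR DEF domains (wild-type or V390I/Y410E/E274V), VP16-AD fused to chimeric human/Locusta RXR, and a GAL4-response luciferase reporter. Ligand was given at 8 doses, 0.01–33 µM, 0.33% DMSO, luciferase read at 48 h. EC50 came from fold induction over DMSO via three-parameter logistic fit; Relative Max FI was taken versus GS™-E ligand.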

[3] = molecular target: wild-type Choristoneura fumiferana EcR (D, E and F domains) (Choristoneura fumiferana, UniProt O77240); type: cell-based; conditions: WT-CtEcR, 3T3 Cells; for RMFI (relative maximum fold induction): relative to GS-E ligand
How it was run: as §1

Row | SMILES | RTS gene reporter (SEAP) expression in mouse serum [1] | EC50 ([2]; S) [nM] | RMFI (relative maximum fold induction) ([2]; S) | EC50 ([3]; S) [nM] | RMFI (relative maximum fold induction) ([3]; S) | melting point [°C] | EC50 ([2]; R) [nM] | RMFI (relative maximum fold induction) ([2]; R) | EC50 ([3]; R) [nM] | RMFI (relative maximum fold induction) ([3]; R)
1 | CCC[C@H](N(NC(=O)c1cccc(OC)c1CC)C(=O)c1cc(C)cc(C)c1)C(C)(C)C [Example 31, (S)-3,5-Dimethyl-benzoic acid N-(1-tert-butyl-butyl)-N′-(2-ethyl-3-methoxy-benzoyl)-hydrazide] | does not induce RTS gene reporter expression | ~30 | 0.57 | 136 | 0.52 |  |  |  |  | 
2 | CCC[C@@H](N(NC(=O)c1cccc2ccccc12)C(=O)c1cc(C)cc(C)c1)C(C)(C)C [Example 23, (R)-3,5-Dimethyl-benzoic acid N-(1-tert-butyl-butyl)-N′-(naphthalene-1-carbonyl)-hydrazide] |  |  |  |  |  | 173 to 174 | ~10 | 0.73 | 111 | 0.69
3 | CCC[C@@H](N(NC(=O)c1cc(F)cc(F)c1)C(=O)c1cc(C)cc(C)c1)C(C)(C)C [Example 18, (R)-3,5-Dimethyl-benzoic acid N-(1-tert-butyl-butyl)-N′-(3,5-difluoro-benzoyl)-hydrazide] |  |  |  |  |  | 192 to 194 | ~10 | 0.79 | 141 | 0.52
4 | CCC[C@@H](N(NC(=O)c1cccc(Cl)c1)C(=O)c1cc(C)cc(C)c1)C(C)(C)C [Example 10, (R)-3,5-Dimethyl-benzoic acid N-(1-tert-butyl-butyl)-N′-(3-chloro-benzoyl)-hydrazide] |  |  |  |  |  | 163 to 164 | ~3 | 0.76 | 94.5 | 0.87
5 | CCC[C@@H](N(NC(=O)c1cccc(OC)c1C)C(=O)c1cc(C)cc(C)c1)C(C)(C)C [Example 29, (R)-3,5-Dimethyl-benzoic acid N-(1-tert-butyl-butyl)-N′-(3-methoxy-2-methyl-benzoyl)-hydrazide] |  |  |  |  |  | 141 to 143 | 0.078 | 1.05 | ~1 | 1.08
6 | CCC[C@@H](N(NC(=O)c1cccc(OC)c1)C(=O)c1cc(C)cc(C)c1)C(C)(C)C [Example 9, (R)-3,5-Dimethyl-benzoic acid N-(1-tert-butyl-butyl)-N′-(3-methoxy-benzoyl)-hydrazide] |  |  |  |  |  | 110 to 111 | 1.4 | 0.70 | 101 | 0.81
7 | CCC[C@@H](N(NC(=O)c1ccccc1Br)C(=O)c1cc(C)cc(C)c1)C(C)(C)C [Example 7, (R)-3,5-Dimethyl-benzoic acid N′-(2-bromo-benzoyl)-N-(1-tert-butyl-butyl)-hydrazide] |  |  |  |  |  | 145 to 147 | 1.4 | 0.90 | 78.7 | 0.58
8 | CCC[C@@H](N(NC(=O)c1ccc(C)cc1)C(=O)c1cc(C)cc(C)c1)C(C)(C)C [Example 11, (R)-3,5-Dimethyl-benzoic acid N-(1-tert-butyl-butyl)-N′-(4-methyl-benzoyl)-hydrazide] |  |  |  |  |  | 60 to 62 | ~1 | 0.90 | ~20 | 0.74
9 | CCC[C@@H](N(NC(=O)c1c(F)cccc1F)C(=O)c1cc(C)cc(C)c1)C(C)(C)C [Example 15, (R)-3,5-Dimethyl-benzoic acid N-(1-tert-butyl-butyl)-N′-(2,6-difluoro-benzoyl)-hydrazide] |  |  |  |  |  | 180 to 182 | 0.54 | 0.79 | 66.2 | 0.82
